Read-outs that look alike come from different tables or passages of the source.
Columns and labels:
[1] = system: Polar bear PXR; settings: for Polar bear PXR Relative activation (%): maximum response as percentage of the maximum response to rifampicin; for Relative max induction (polar bear vs human): ratio of maximum induction via pbPXR to hPXR
[2] = molecular target: T1, Human PXR (Homo sapiens, UniProt O75469); assay: in vitro
T1 sequence (O75469 107-434): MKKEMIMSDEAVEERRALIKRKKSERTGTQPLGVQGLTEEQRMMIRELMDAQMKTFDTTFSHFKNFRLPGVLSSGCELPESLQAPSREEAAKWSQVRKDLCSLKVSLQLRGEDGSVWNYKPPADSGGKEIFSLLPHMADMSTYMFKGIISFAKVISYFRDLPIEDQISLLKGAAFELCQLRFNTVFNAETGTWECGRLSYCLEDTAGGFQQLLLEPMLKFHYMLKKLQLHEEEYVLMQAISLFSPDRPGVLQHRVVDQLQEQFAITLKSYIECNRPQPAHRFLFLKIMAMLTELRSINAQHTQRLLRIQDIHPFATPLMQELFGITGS

[3] = system: polar bear PXR; assay: in vitro
[4] = molecular target: T1, Human PXR; settings: maximum response as percentage of the maximum response to rifampicin
[5] = molecular target: T1, Human PXR
[6] = system: Polar bear PXR

Row | Compound | Polar bear PXR Relative activation (%) [1] [%] | Relative max induction (polar bear vs human) [1] | Human PXR Relative activation (%) [4] [%] | other results
1 | Clc1cccc(Cl)c1Cl [1,2,3-trichlorobenzene (1,2,3-TCB), 1,2,3-trichlorobenzene] | 9 | 0.9 | 9 | fold induction [2]: 0.9 ± 0.1; fold induction [3]: 0.9 ± 0.3
2 | Clc1ccc(Cl)c(Cl)c1 [1,2,4-trichlorobenzene (1,2,4-TCB), 1,2,4-trichlorobenzene] | 9 | 0.9 | 10 | fold induction [2]: 1 ± 0.1; fold induction [3]: 0.9 ± 0.3
3 | Clc1ccc(C(c2ccc(Cl)cc2)C(Cl)(Cl)Cl)cc1 [4,4′-DDT, Dichlorodiphenyltrichloroethane] | 42 | 0.8 | 53 | Human PXR RECh20 [5]: 9.3 µM; Polar bear PXR RECh20 [6]: 11 µM
4 | Brc1ccc(Oc2ccc(Br)cc2Br)cc1 [BDE 28] | 9 | 0.3 | 31 | Human PXR RECh20 [5]: 11 µM
5 | Brc1ccc(Oc2ccc(Br)cc2Br)c(Br)c1 [BDE 47] | 16 | 0.3 | 59 | Human PXR RECh20 [5]: 5 µM
6 | Brc1ccc(Oc2cc(Br)c(Br)cc2Br)c(Br)c1 [BDE 99] | 16 | 0.3 | 52 | Human PXR RECh20 [5]: 4.8 µM
7 | Brc1ccc(Oc2c(Br)cc(Br)cc2Br)c(Br)c1 [BDE 100] | 14 | 0.4 | 39 | Human PXR RECh20 ([5]; human): 6.6 µM; fold induction [2]: 3.8 ± 0.3; fold induction [3]: 1.3 ± 0.2
8 | Brc1cc(Br)c(Oc2cc(Br)c(Br)cc2Br)cc1Br [BDE 153] | 17 | 0.4 | 45 | Human PXR RECh20 ([5]; human): 3.9 µM; fold induction [2]: 4.4 ± 0.2; fold induction [3]: 1.7 ± 0.1
9 | Brc1c(Br)c(Br)c(Oc2c(Br)c(Br)c(Br)c(Br)c2Br)c(Br)c1Br [BDE 209] | 19 | 0.7 | 26 | Human PXR RECh20 [5]: 16 µM
10 | Clc1ccccc1C(c1ccccc1)(c1ccccc1)n1ccnc1 [Clotrimazole, reference compound] |  |  |  | Polar bear PXR RECh20 ([6]; polar bear): 0.63 µM
11 | C[Si]1(C)O[Si](C)(C)O[Si](C)(C)O[Si](C)(C)O[Si](C)(C)O1 [Decamethylcyclopentasiloxane (D5), Decamethylcyclopentasiloxane] | 16 | 0.7 | 22 | Human PXR RECh20 ([5]; human): 35 µM; fold induction [2]: 2.2 ± 0.2; fold induction [3]: 1.6 ± 0.2
12 | C[Si]1(C)O[Si](C)(C)O[Si](C)(C)O[Si](C)(C)O1 [Octamethylcyclotetrasiloxane (D4), Octamethylcyclotetrasiloxane] | 11 | 0.3 | 44 | fold induction [2]: 4.3 ± 0.3; fold induction [3]: 1.1 ± 0.4
13 | Clc1ccc(-c2ccc(Cl)cc2Cl)cc1 [PCB 28] | 12 | 0.6 | 19 | 
14 | Clc1ccc(-c2ccc(Cl)cc2Cl)c(Cl)c1 [PCB 47] | 14 | 0.5 | 27 | 
15 | Clc1ccc(Cl)c(-c2cc(Cl)ccc2Cl)c1 [PCB 52] | 10 | 0.9 | 11 | 
16 | Clc1ccc(-c2ccc(Cl)c(Cl)c2Cl)cc1 [PCB 60] | 8 | 0.7 | 10 | 
17 | Clc1cc(Cl)c(-c2cccc(Cl)c2Cl)cc1Cl [PCB 97] | 28 | 1.1 | 25 | 
18 | Clc1ccc(Cl)c(-c2cc(Cl)c(Cl)cc2Cl)c1 [PCB 101] | 19 | 0.6 | 34 | 
19 | Clc1ccc(-c2cc(Cl)c(Cl)cc2Cl)cc1Cl [PCB 118] | 14 | 0.6 | 25 | Human PXR RECh20 [5]: 34 µM
20 | Clc1cc(Cl)c(-c2ccc(Cl)c(Cl)c2Cl)cc1Cl [PCB 138] | 11 | 0.9 | 12 | 
21 | Clc1ccc(Cl)c(-c2c(Cl)c(Cl)cc(Cl)c2Cl)c1 [PCB 151] | 15 | 0.2 | 72 | 
22 | Clc1ccc(-c2cc(Cl)c(Cl)c(Cl)c2Cl)c(Cl)c1Cl [PCB 170] | 15 | 0.6 | 24 | 
23 | Clc1cc(Cl)c(-c2c(Cl)cc(Cl)c(Cl)c2Cl)cc1Cl [PCB 183] | 31 | 1.1 | 28 | 
24 | Clc1cc(Cl)c(-c2c(Cl)cc(Cl)c(Cl)c2Cl)c(Cl)c1 [PCB 184] | 19 | 0.6 | 33 | 
25 | Clc1ccc(-c2c(Cl)c(Cl)c(Cl)c(Cl)c2Cl)cc1Cl [PCB 190] | 18 | 0.4 | 46 | 
26 | O=C(O)C(F)(F)C(F)(F)C(F)(F)C(F)(F)C(F)(F)C(F)(F)C(F)(F)C(F)(F)F [Perfluorononanoic acid (PFNA), Perfluorononanoic acid] | 10 | 0.9 | 11 | 
27 | CO[C@H]1/C=C/O[C@@]2(C)Oc3c(C)c(O)c4c(O)c(c(/C=N/N5CCN(C)CC5)c(O)c4c3C2=O)NC(=O)/C(C)=C\C=C\[C@H](C)[C@H](O)[C@@H](C)[C@@H](O)[C@@H](C)[C@H](OC(C)=O)[C@@H]1C [Rifampicin, reference compound] |  |  |  | Human PXR RECh20 ([5]; human): 0.46 µM; Polar bear PXR RECh20 ([6]; polar bear): 1.1 µM
28 | CC(C)(c1cc(Br)c(O)c(Br)c1)c1cc(Br)c(O)c(Br)c1 [Tetrabromobisphenol A (TBBPA), Tetrabromobisphenol A] |  |  |  | Human PXR RECh20 [5]: 29 µM; Human PXR Relative activation (%) [5]: 32%; Polar bear PXR RECh20 [6]: 35 µM; Polar bear PXR Relative activation (%) [6]: 39%; Relative max induction (polar bear vs human) [6]: 1.2
29 | O=c1cc(-c2ccccc2)oc2ccc3ccccc3c12 [β-naphtoflavone (BNF), β-naphtoflavone, reference compound] | 21 | 0.8 | 28 | Human PXR RECh20 [5]: 0.069 µM; Polar bear PXR RECh20 [6]: 0.69 µM
30 | Hexabromocyclododecane [HBCD technical mixture] |  |  |  | Polar bear PXR RECh20 [6]: 1.7 µM
